# System: Stress protein genes
# Assay: DNA chip mRNA expression in yeast, stress protein genes (Table 6)
# Type: cell-based, Saccharomyces cerevisiae S288C
# Outline: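 S. cerevisiae S288C grown at 25° C in YPD were exposed in log phase for two hours to one toxic chemical at a growth-inhibiting, non-lethal concentration; untreated cells served as control. Poly(A) mRNA was reverse-transcribed with Cy3/Cy5-dUTP and hybridized to a whole-genome yeast DNA chip at 65° C for over 12 hours; values are fluorescence ratios versus untreated.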
compound,measurement,setting,value
"Oc1cc(Cl)c(Cl)cc1Cl [(6), 2,4,5-trichlorophenol]",The level of expressed mRNA in the presence of chemical substance/The level of expressed mRNA in the absence of chemical substance,yeast gene YAL005C,1.6
same,The level of expressed mRNA in the presence of chemical substance/The level of expressed mRNA in the absence of chemical substance,yeast gene YAL015C,0.7
same,The level of expressed mRNA in the presence of chemical substance/The level of expressed mRNA in the absence of chemical substance,yeast gene YBL075C,0.8
same,The level of expressed mRNA in the presence of chemical substance/The level of expressed mRNA in the absence of chemical substance,yeast gene YBL093C,0.8
same,The level of expressed mRNA in the presence of chemical substance/The level of expressed mRNA in the absence of chemical substance,yeast gene YBR044C,1.0
same,The level of expressed mRNA in the presence of chemical substance/The level of expressed mRNA in the absence of chemical substance,yeast gene YBR054W,1.1
same,The level of expressed mRNA in the presence of chemical substance/The level of expressed mRNA in the absence of chemical substance,yeast gene YBR067C,1.1
same,The level of expressed mRNA in the presence of chemical substance/The level of expressed mRNA in the absence of chemical substance,yeast gene YBR072W,32.2
same,The level of expressed mRNA in the presence of chemical substance/The level of expressed mRNA in the absence of chemical substance,yeast gene YBR126C,2.9
same,The level of expressed mRNA in the presence of chemical substance/The level of expressed mRNA in the absence of chemical substance,yeast gene YBR169C,4.9
same,The level of expressed mRNA in the presence of chemical substance/The level of expressed mRNA in the absence of chemical substance,yeast gene YCL035C,5.1
same,The level of expressed mRNA in the presence of chemical substance/The level of expressed mRNA in the absence of chemical substance,yeast gene YCR021C,2.2
same,The level of expressed mRNA in the presence of chemical substance/The level of expressed mRNA in the absence of chemical substance,yeast gene YCR060W,3.3
same,The level of expressed mRNA in the presence of chemical substance/The level of expressed mRNA in the absence of chemical substance,yeast gene YCR083W,2.4
same,The level of expressed mRNA in the presence of chemical substance/The level of expressed mRNA in the absence of chemical substance,yeast gene YDL022W,2.1
same,The level of expressed mRNA in the presence of chemical substance/The level of expressed mRNA in the absence of chemical substance,yeast gene YDL025C,0.6
same,The level of expressed mRNA in the presence of chemical substance/The level of expressed mRNA in the absence of chemical substance,yeast gene YDR033W,6.7
same,The level of expressed mRNA in the presence of chemical substance/The level of expressed mRNA in the absence of chemical substance,yeast gene YDR077W,1.0
same,The level of expressed mRNA in the presence of chemical substance/The level of expressed mRNA in the absence of chemical substance,yeast gene YDR098C,1.1
same,The level of expressed mRNA in the presence of chemical substance/The level of expressed mRNA in the absence of chemical substance,yeast gene YDR155C,1.5
same,The level of expressed mRNA in the presence of chemical substance/The level of expressed mRNA in the absence of chemical substance,yeast gene YDR258C,2.4
same,The level of expressed mRNA in the presence of chemical substance/The level of expressed mRNA in the absence of chemical substance,yeast gene YDR293C,0.9
same,The level of expressed mRNA in the presence of chemical substance/The level of expressed mRNA in the absence of chemical substance,yeast gene YDR436W,1.1
same,The level of expressed mRNA in the presence of chemical substance/The level of expressed mRNA in the absence of chemical substance,yeast gene YDR513W,2.1
same,The level of expressed mRNA in the presence of chemical substance/The level of expressed mRNA in the absence of chemical substance,yeast gene YDR519W,1.3
same,The level of expressed mRNA in the presence of chemical substance/The level of expressed mRNA in the absence of chemical substance,yeast gene YEL030W,0.6
same,The level of expressed mRNA in the presence of chemical substance/The level of expressed mRNA in the absence of chemical substance,yeast gene YEL039C,1.5
same,The level of expressed mRNA in the presence of chemical substance/The level of expressed mRNA in the absence of chemical substance,yeast gene YER042W,1.6
same,The level of expressed mRNA in the presence of chemical substance/The level of expressed mRNA in the absence of chemical substance,yeast gene YER057C,1.6
same,The level of expressed mRNA in the presence of chemical substance/The level of expressed mRNA in the absence of chemical substance,yeast gene YER103W,1.7
same,The level of expressed mRNA in the presence of chemical substance/The level of expressed mRNA in the absence of chemical substance,yeast gene YER125W,0.7
same,The level of expressed mRNA in the presence of chemical substance/The level of expressed mRNA in the absence of chemical substance,yeast gene YFL014W,9.3
same,The level of expressed mRNA in the presence of chemical substance/The level of expressed mRNA in the absence of chemical substance,yeast gene YFL016C,1.3
same,The level of expressed mRNA in the presence of chemical substance/The level of expressed mRNA in the absence of chemical substance,yeast gene YFL020C,2.0
same,The level of expressed mRNA in the presence of chemical substance/The level of expressed mRNA in the absence of chemical substance,yeast gene YFR052W,3.2
same,The level of expressed mRNA in the presence of chemical substance/The level of expressed mRNA in the absence of chemical substance,yeast gene YGL073W,1.9
same,The level of expressed mRNA in the presence of chemical substance/The level of expressed mRNA in the absence of chemical substance,yeast gene YGL115W,1.2
same,The level of expressed mRNA in the presence of chemical substance/The level of expressed mRNA in the absence of chemical substance,yeast gene YGL181W,1.9
same,The level of expressed mRNA in the presence of chemical substance/The level of expressed mRNA in the absence of chemical substance,yeast gene YGR088W,1.3
same,The level of expressed mRNA in the presence of chemical substance/The level of expressed mRNA in the absence of chemical substance,yeast gene YHL028W,1.8
same,The level of expressed mRNA in the presence of chemical substance/The level of expressed mRNA in the absence of chemical substance,yeast gene YHL046C,0.8
same,The level of expressed mRNA in the presence of chemical substance/The level of expressed mRNA in the absence of chemical substance,yeast gene YHR030C,0.9
same,The level of expressed mRNA in the presence of chemical substance/The level of expressed mRNA in the absence of chemical substance,yeast gene YHR057C,1.3
same,The level of expressed mRNA in the presence of chemical substance/The level of expressed mRNA in the absence of chemical substance,yeast gene YHR104W,1.2
same,The level of expressed mRNA in the presence of chemical substance/The level of expressed mRNA in the absence of chemical substance,yeast gene YIL011W,0.7
same,The level of expressed mRNA in the presence of chemical substance/The level of expressed mRNA in the absence of chemical substance,yeast gene YIL033C,2.0
same,The level of expressed mRNA in the presence of chemical substance/The level of expressed mRNA in the absence of chemical substance,yeast gene YIR037W,2.7
same,The level of expressed mRNA in the presence of chemical substance/The level of expressed mRNA in the absence of chemical substance,yeast gene YIR038C,2.5
same,The level of expressed mRNA in the presence of chemical substance/The level of expressed mRNA in the absence of chemical substance,yeast gene YJL128C,1.3
same,The level of expressed mRNA in the presence of chemical substance/The level of expressed mRNA in the absence of chemical substance,yeast gene YJL158C,0.5
same,The level of expressed mRNA in the presence of chemical substance/The level of expressed mRNA in the absence of chemical substance,yeast gene YJL159W,1.8
same,The level of expressed mRNA in the presence of chemical substance/The level of expressed mRNA in the absence of chemical substance,yeast gene YJL165C,0.5
same,The level of expressed mRNA in the presence of chemical substance/The level of expressed mRNA in the absence of chemical substance,yeast gene YJR045C,1.2
same,The level of expressed mRNA in the presence of chemical substance/The level of expressed mRNA in the absence of chemical substance,yeast gene YJR090C,1.2
same,The level of expressed mRNA in the presence of chemical substance/The level of expressed mRNA in the absence of chemical substance,yeast gene YKL161C,2.0
same,The level of expressed mRNA in the presence of chemical substance/The level of expressed mRNA in the absence of chemical substance,yeast gene YKL163W,1.1
same,The level of expressed mRNA in the presence of chemical substance/The level of expressed mRNA in the absence of chemical substance,yeast gene YKL164C,1.4
same,The level of expressed mRNA in the presence of chemical substance/The level of expressed mRNA in the absence of chemical substance,yeast gene YKL210W,1.4
same,The level of expressed mRNA in the presence of chemical substance/The level of expressed mRNA in the absence of chemical substance,yeast gene YKR053C,1.1
same,The level of expressed mRNA in the presence of chemical substance/The level of expressed mRNA in the absence of chemical substance,yeast gene YLL024C,1.0
same,The level of expressed mRNA in the presence of chemical substance/The level of expressed mRNA in the absence of chemical substance,yeast gene YLL026W,1.9
same,The level of expressed mRNA in the presence of chemical substance/The level of expressed mRNA in the absence of chemical substance,yeast gene YLL039C,1.5
same,The level of expressed mRNA in the presence of chemical substance/The level of expressed mRNA in the absence of chemical substance,yeast gene YLL060C,1.4
same,The level of expressed mRNA in the presence of chemical substance/The level of expressed mRNA in the absence of chemical substance,yeast gene YLR006C,0.9
same,The level of expressed mRNA in the presence of chemical substance/The level of expressed mRNA in the absence of chemical substance,yeast gene YLR109W,2.1
same,The level of expressed mRNA in the presence of chemical substance/The level of expressed mRNA in the absence of chemical substance,yeast gene YLR259C,0.9
same,The level of expressed mRNA in the presence of chemical substance/The level of expressed mRNA in the absence of chemical substance,yeast gene YML007W,0.5
same,The level of expressed mRNA in the presence of chemical substance/The level of expressed mRNA in the absence of chemical substance,yeast gene YML070W,2.2
same,The level of expressed mRNA in the presence of chemical substance/The level of expressed mRNA in the absence of chemical substance,yeast gene YMR021C,2.2
same,The level of expressed mRNA in the presence of chemical substance/The level of expressed mRNA in the absence of chemical substance,yeast gene YMR173W,5.0
same,The level of expressed mRNA in the presence of chemical substance/The level of expressed mRNA in the absence of chemical substance,yeast gene YMR186W,1.3
same,The level of expressed mRNA in the presence of chemical substance/The level of expressed mRNA in the absence of chemical substance,yeast gene YNL064C,0.8
same,The level of expressed mRNA in the presence of chemical substance/The level of expressed mRNA in the absence of chemical substance,yeast gene YNL160W,5.8
same,The level of expressed mRNA in the presence of chemical substance/The level of expressed mRNA in the absence of chemical substance,yeast gene YNL241C,0.9
same,The level of expressed mRNA in the presence of chemical substance/The level of expressed mRNA in the absence of chemical substance,yeast gene YNR076W,1.2
same,The level of expressed mRNA in the presence of chemical substance/The level of expressed mRNA in the absence of chemical substance,yeast gene YOL064C,1.4
same,The level of expressed mRNA in the presence of chemical substance/The level of expressed mRNA in the absence of chemical substance,yeast gene YOL161C,1.0
same,The level of expressed mRNA in the presence of chemical substance/The level of expressed mRNA in the absence of chemical substance,yeast gene YOR008C,1.1
same,The level of expressed mRNA in the presence of chemical substance/The level of expressed mRNA in the absence of chemical substance,yeast gene YOR009W,0.9
same,The level of expressed mRNA in the presence of chemical substance/The level of expressed mRNA in the absence of chemical substance,yeast gene YOR010C,0.5
same,The level of expressed mRNA in the presence of chemical substance/The level of expressed mRNA in the absence of chemical substance,yeast gene YOR027W,1.6
same,The level of expressed mRNA in the presence of chemical substance/The level of expressed mRNA in the absence of chemical substance,yeast gene YOR208W,1.8
same,The level of expressed mRNA in the presence of chemical substance/The level of expressed mRNA in the absence of chemical substance,yeast gene YPL059W,1.3
same,The level of expressed mRNA in the presence of chemical substance/The level of expressed mRNA in the absence of chemical substance,yeast gene YPL106C,1.6
same,The level of expressed mRNA in the presence of chemical substance/The level of expressed mRNA in the absence of chemical substance,yeast gene YPL140C,0.3
same,The level of expressed mRNA in the presence of chemical substance/The level of expressed mRNA in the absence of chemical substance,yeast gene YPL194W,1.1
same,The level of expressed mRNA in the presence of chemical substance/The level of expressed mRNA in the absence of chemical substance,yeast gene YPL223C,1.5
same,The level of expressed mRNA in the presence of chemical substance/The level of expressed mRNA in the absence of chemical substance,yeast gene YPL240C,1.2
same,The level of expressed mRNA in the presence of chemical substance/The level of expressed mRNA in the absence of chemical substance,yeast gene YPR005C,0.8

# Reference: US8192962B2, “Processes for detecting toxic substances” (Daikin Industries, Ltd., priority 2001, dated 2012)
